# Assays:
# Assay type in all cases: biochemical
# [1] = tested on: platelet-poor plasma; assay: APTT assay (activated partial thrombin time), anticoagulant activity test; details: 37° C., fibrin formation time
# Protocol: (§1) Oligosaccharide compounds of the present application, J1 (a compound of formula J, in which Y=Na, q=1, R is azido, and ? is in β configuration), J2 (a compound of formula J, in which Y=Na, q=2, R is azido, and ? is in β configuration), J3 (a compound of formula J, in which Y=Na, q=3, R is azido, and ? is in β configuration), and J4 (a compound of formula J, in which Y=Na, q=4, R is azido, and ? is in β configuration) were assayed for anticoagulant activity, including activated partial thrombin time (APTT), prothrombin time (PT) and thrombin time (TT).
# (§2) The whole experiment was carried out according to the instruction of the APTT kit. Firstly, 20 ul of platelet-poor plasma and 5 ul of the solution to be tested (control or sample solution) were mixed into a test cup and incubated in preheating zone at 37° C. for 3 min. Then 25 ul of APTT reagent was added to the mixed system, and then continued to incubate at 37° C. for 3 min. Next, the test cup was moved to the test zone, and 25 ul of calcium chloride solution preheated for 5 min was added. At the same time, recording of fibrin formation time was immediately initiated, and when the experiment was completed, the fibrin formation time was read from the coagulation analyzer.
# (§3) Results of the assays are as follows (data in the table represent the concentration required to double APTT/PT/TT): […]
# [2] = tested on: platelet-poor plasma; assay: PT assay (prothrombin time), anticoagulant activity test; details: 37° C., fibrin formation time
# Protocol: as §1
# as §2, with “PT” for “APTT”, “Then” for “Then 25 ul of APTT reagent was added to the mixed system, and then continued to incubate at 37° C. for 3 min. Next,”, “50” for “25”, “of” for “of calcium chloride solution”, “PT reagent” for “for 5 min”, “added (preheating time is longer than 10 min, but not more than 30 min).” for “added.”
# as §3
# [3] = tested on: platelet-poor plasma; assay: TT assay (thrombin time), anticoagulant activity test; details: 37° C., fibrin formation time, last column of table
# Protocol: as §1
# as §2, with “TT” for “APTT”, “Then” for “Then 25 ul of APTT reagent was added to the mixed system, and then continued to incubate at 37° C. for 3 min. Next,”, “50” for “25”, “of” for “of calcium chloride solution”, “TT reagent” for “for 5 min”, “added (preheating time is longer than 10 min, but not more than 30 min).” for “added.”
# as §3
substance,measurement,setting,value
"azido{(2,4-di-O-sulfo-α-L-fucosyl)-(1→3)-(β-D-glucopyranosyluronic acid)-(1→3)-(4,6-di-O-sulfo-2-deoxy-2-N-acetamino-β-D-galactopyranosyl)-(1→4)-[(2,4-di-O-sulfo-α-L-fucosyl)-(1→3)-(β-D-glucopyranosyluronic acid)-(1→3)-(4,6-di-O-sulfo-2-deoxy-2-N-acetamido-β-D-galactopyranosyl)]} decasodium salt [Compound J1]",APTT (concentration required to double APTT),[1],120.39 µg/mL
same,PT (concentration required to double PT),[2],>128 µg/mL
same,Concentration required to double TT,[3],>128 µg/mL

# — patent publication US12421270B2, “Oligosaccharide, preparation method therefor, composition thereof and use thereof” (YANTAI DONGCHENG BIOCHEMICALS CO., LTD, priority 2018, dated 2025)
